Measured values reported in US20230312556A1, “ARYLAMIDE COMPOUND, PHARMACEUTICAL COMPOSITION COMPRISING SAME, AND PREPARATION METHOD THEREFOR AND USE THEREOF” (SICHUAN KELUN-BIOTECH BIOPHARMACEUTICAL CO., LTD., priority 2020, published 2023).

Key:
[1] = molecular target: mutant CRAF enzyme (RAF1 Y340D and Y341D) (Homo sapiens (Human), UniProt P04049, Y340D/Y341D); assay: RAF inhibition assay (TB-PMAP2K1 kit), mutant CRAF; type: biochemical; settings: FLUORESCEIN-MAP2K1 substrate, 60 min reaction
mutant CRAF enzyme (RAF1 Y340D and Y341D), sequence (P04049 whole entry Y340D/Y341D): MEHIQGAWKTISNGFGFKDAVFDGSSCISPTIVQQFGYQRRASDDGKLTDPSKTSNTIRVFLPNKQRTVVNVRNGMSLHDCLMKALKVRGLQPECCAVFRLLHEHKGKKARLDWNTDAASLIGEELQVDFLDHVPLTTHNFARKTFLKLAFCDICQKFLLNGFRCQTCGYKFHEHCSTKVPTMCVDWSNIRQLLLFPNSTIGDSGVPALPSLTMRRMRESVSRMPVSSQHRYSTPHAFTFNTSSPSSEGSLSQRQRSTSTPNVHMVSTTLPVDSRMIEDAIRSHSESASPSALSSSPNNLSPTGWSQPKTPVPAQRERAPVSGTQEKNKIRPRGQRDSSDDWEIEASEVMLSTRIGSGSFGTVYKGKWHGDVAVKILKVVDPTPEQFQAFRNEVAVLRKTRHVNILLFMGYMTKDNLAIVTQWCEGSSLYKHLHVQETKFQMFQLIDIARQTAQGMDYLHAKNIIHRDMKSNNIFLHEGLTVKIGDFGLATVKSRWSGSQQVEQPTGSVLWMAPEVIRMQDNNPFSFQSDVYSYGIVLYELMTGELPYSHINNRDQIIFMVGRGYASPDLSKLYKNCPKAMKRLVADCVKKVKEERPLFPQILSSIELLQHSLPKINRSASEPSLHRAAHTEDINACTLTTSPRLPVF

[2] = molecular target: mutant BRAF enzyme (BRAF-V600E) (Homo sapiens (Human), UniProt P15056, V600E); assay: RAF inhibition assay (TB-PMAP2K1 kit), BRAF-V600E; type: biochemical; settings: FLUORESCEIN-MAP2K1 substrate, 60 min reaction
mutant BRAF enzyme (BRAF-V600E), sequence (P15056 whole entry V600E): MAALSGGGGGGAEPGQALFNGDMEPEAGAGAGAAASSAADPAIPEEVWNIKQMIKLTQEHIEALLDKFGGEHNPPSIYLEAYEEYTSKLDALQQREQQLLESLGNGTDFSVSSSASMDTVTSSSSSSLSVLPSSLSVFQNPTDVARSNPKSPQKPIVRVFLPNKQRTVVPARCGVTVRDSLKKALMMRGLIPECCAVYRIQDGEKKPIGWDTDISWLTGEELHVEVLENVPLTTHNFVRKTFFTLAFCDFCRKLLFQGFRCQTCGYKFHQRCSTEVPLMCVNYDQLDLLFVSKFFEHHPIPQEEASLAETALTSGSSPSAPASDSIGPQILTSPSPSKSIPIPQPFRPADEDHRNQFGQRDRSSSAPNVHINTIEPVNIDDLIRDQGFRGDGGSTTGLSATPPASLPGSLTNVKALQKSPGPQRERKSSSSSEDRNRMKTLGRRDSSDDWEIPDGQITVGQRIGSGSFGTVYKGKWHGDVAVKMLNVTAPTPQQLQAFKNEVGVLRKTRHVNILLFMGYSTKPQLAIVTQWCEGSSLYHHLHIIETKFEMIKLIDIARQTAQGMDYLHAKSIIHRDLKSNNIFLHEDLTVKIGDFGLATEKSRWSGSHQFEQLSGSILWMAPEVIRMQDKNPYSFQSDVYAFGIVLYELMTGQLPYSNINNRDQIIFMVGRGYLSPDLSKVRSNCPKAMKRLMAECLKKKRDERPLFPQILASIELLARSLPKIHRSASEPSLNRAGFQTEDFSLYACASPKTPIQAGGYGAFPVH

| SMILES | IC50 [1] [nM] | IC50 [2] [nM] |
| --- | --- | --- |
| Cc1ccc2c(Nc3cccc(Cl)c3F)nccc2c1NC(=O)c1cccc2c(N)ncnc12 [Compound 1, 4-amino-N-(1-((3-chloro-2-fluorophenyl)amino)-6-methylisoquinolin-5-yl)quinazoline-8-carboxamide] | 5.4 ± 0.6 | 4.71 ± 2.62 |
| Cc1ccc2c(Cc3cccc(C(F)(F)F)c3)nccc2c1NC(=O)c1csc2c(N)ncnc12 [Compound 19, 4-amino-N-(6-methyl-1-(3-(trifluoromethyl)benzyl)isoquinolin-5-yl)thieno[3,2-d]pyrimidine-7-carboxamide] | 10.3 ± 2.29 | 13.9 ± 3.24 |
| Cc1ccc2c(C(=O)c3cccc(C(F)(F)F)c3)nccc2c1NC(=O)c1csc2c(N)ncnc12 [Compound 22, 4-amino-N-(6-methyl-1-(3-(trifluoromethyl)benzoyl)isoquinolin-5-yl)thieno[3,2-d]pyrimidine-7-carboxamide] | 14.5 ± 9.94 | 26.8 ± 6.82 |
| Cc1ccc2c(C(O)c3cccc(C(F)(F)F)c3)nccc2c1NC(=O)c1csc2c(N)ncnc12 (stereo not shown) [Compound 23, 4-amino-N-(1-(hydroxy(3-(trifluoromethyl)phenyl)methyl)-6-methylisoquinolin-5-yl)thieno[3,2-d]pyrimidine-7-carboxamide] | 3.93 ± 1 | 13.2 ± 3.17 |
| Cc1ccc2c(C(O)c3ccc(Cl)cc3F)nccc2c1NC(=O)c1csc2c(N)ncnc12 (stereo not shown) [Compound 28, 4-amino-N-(1-((4-chloro-2-fluorophenyl)(hydroxy)methyl)-6-methylisoquinolin-5-yl)thieno[3,2-d]pyrimidine-7-carboxamide] | 3.48 ± 0.48 | 4.58 ± 0.72 |
| Cc1ccc2c(C(C)Oc3ccccc3)nccc2c1NC(=O)c1csc2c(N)ncnc12 (stereo not shown) [Compound 35, 4-amino-N-(6-methyl-1-(1-phenoxyethyl)isoquinolin-5-yl)thieno[3,2-d]pyrimidine-7-carboxamide] | 15.4 ± 1.89 | 50.4 ± 12.6 |
| Cc1ccc2c(Nc3cccc(Cl)c3)nccc2c1NC(=O)c1cccc2c(N)ncnc12 [Compound 38, 4-amino-N-(1-((3-chlorophenyl)amino)-6-methylisoquinolin-5-yl)quinazoline-8-carboxamide] | 10.8 ± 2.02 | 9.5 ± 2.68 |
| Cc1ccc2c(Nc3ccccc3F)nccc2c1NC(=O)c1cccc2c(N)ncnc12 [Compound 39, 4-amino-N-(1-((2-fluorophenyl)amino)-6-methylisoquinolin-5-yl)quinazoline-8-carboxamide] | 2.6 ± 0.21 | 1.74 ± 0.23 |
| Cc1ccc2c(Nc3ccc(Cl)cc3F)nccc2c1NC(=O)c1cccc2c(N)ncnc12 [Compound 41, 4-amino-N-(1-((4-chloro-2-fluorophenyl)amino)-6-methylisoquinolin-5-yl)quinazoline-8-carboxamide] | 25 ± 9.32 | 12.7 ± 2.28 |
| Cc1ccc2c(Nc3cccc(C(F)(F)F)c3)nccc2c1NC(=O)c1cnc2c(N)ncnn12 [Compound 43, 4-amino-N-(6-methyl-1-((3-(trifluoromethyl)phenyl)amino)isoquinolin-5-yl)imidazo[2,1-f][1,2,4]triazine-7-carboxamide] | 4.49 ± 0.95 | 4.84 ± 0.97 |
| Cc1ccc2c(Nc3cccc(Cl)c3F)nccc2c1NC(=O)c1cc(F)cc2c(N)ncnc12 [Compound 46, 4-amino-N-(1-((3-chloro-2-fluorophenyl)amino)-6-methylisoquinolin-5-yl)-6-fluoroquinazoline-8-carboxamide] | 38.1 ± 21.9 | 16.2 ± 5.93 |
| Cc1ccc2c(Nc3ccc(F)c(Cl)c3)nccc2c1NC(=O)c1cnc2c(N)ncnn12 [Compound 58, 4-amino-N-(1-((3-chloro-4-fluorophenyl)amino)-6-methylisoquinolin-5-yl)imidazo[2,1-f][1,2,4]triazine-7-carboxamide] | 2.68 ± 0.13 | 4.47 ± 0.6 |
| COc1ccc(Nc2nccc3c(NC(=O)c4cccc5c(N)ncnc45)c(C)ccc23)c(F)c1 [Compound 60, 4-amino-N-(1-((2-fluoro-4-methoxyphenyl)amino)-6-methylisoquinolin-5-yl)quinazoline-8-carboxamide] | 3.14 ± 0.09 | 6.31 ± 1.09 |
| Cc1ccc2c(Nc3ccc(F)cc3F)nccc2c1NC(=O)c1cccc2c(N)ncnc12 [Compound 67, 4-amino-N-(1-((2,4-difluorophenyl)amino)-6-methylisoquinolin-5-yl)quinazoline-8-carboxamide] | 5.76 ± 1.04 | 8.66 ± 0.95 |
| Cc1ccc2c(Nc3cc(Cl)ccc3F)nccc2c1NC(=O)c1cccc2c(N)ncnc12 [Compound 73, 4-amino-N-(1-((5-chloro-2-fluorophenyl)amino)-6-methylisoquinolin-5-yl)quinazoline-8-carboxamide] | 8.78 ± 1.48 | 11.9 ± 2.3 |
| Cc1ccc2c(Nc3cccc(Cl)c3F)nccc2c1NC(=O)c1cc(O)cc2c(N)ncnc12 [Compound 76, 4-amino-N-(1-((3-chloro-2-fluorophenyl)amino)-6-methylisoquinolin-5-yl)-6-hydroxyquinazoline-8-carboxamide] | – | 29.3 ± 3.32 |
| Cc1ccc2c(Nc3ccc4c(c3)OCCO4)nccc2c1NC(=O)c1cccc2c(N)ncnc12 [Compound 77, 4-amino-N-(1-((2,3-dihydrobenzo[b][1,4]dioxin-6-yl)amino)-6-methylisoquinolin-5-yl)quinazoline-8-carboxamide] | – | 7.9 ± 0.73 |

| SMILES | IC50 [1] [nM] | IC50 [2] [nM] |
| --- | --- | --- |
| Cc1ccc2c(Nc3ccc(C#N)cc3F)nccc2c1NC(=O)c1cccc2c(N)ncnc12 [Compound 78, 4-amino-N-(1-((4-cyano-2-fluorophenyl)amino)-6-methylisoquinolin-5-yl)quinazoline-8-carboxamide] | – | 12.4 ± 0.94 |
| Cc1ccc2c(Nc3cccc(Cl)c3F)nccc2c1NC(=O)c1cc(OCCN2CCOCC2)cc2c(N)ncnc12 [Compound 79, 4-amino-N-(1-((3-chloro-2-fluorophenyl)amino)-6-methylisoquinolin-5-yl)-6-(2-morpholinoethoxy)quinazoline-8-carboxamide] | – | 14.7 ± 1.66 |
| Cc1ccc2c(Nc3cc(C#N)ccc3F)nccc2c1NC(=O)c1cccc2c(N)ncnc12 [Compound 80, 4-amino-N-(1-((5-cyano-2-fluorophenyl)amino)-6-methylisoquinolin-5-yl)quinazoline-8-carboxamide] | – | 13.5 ± 12.1 |
| Cc1ccc2c(Nc3cccc(Cl)c3F)nccc2c1NC(=O)c1ccnc2c(N)ncnc12 [Compound 81, 4-amino-N-(1-((3-chloro-2-fluorophenyl)amino)-6-methylisoquinolin-5-yl)pyrido[3,2-d]pyrimidine-8-carboxamide] | – | 22 ± 3.69 |
| Cc1ccc2c(Nc3ccc4c(c3)CN(C)CC4)nccc2c1NC(=O)c1cccc2c(N)ncnc12 [Compound 82, 4-amino-N-(6-methyl-1-((2-methyl-1,2,3,4-tetrahydroisoquinolin-7-yl)amino)isoquinolin-5-yl)quinazoline-8-carboxamide] | – | 13.2 ± 1.69 |
| Cc1ccc2c(Nc3cccc(C#N)c3F)nccc2c1NC(=O)c1cccc2c(N)ncnc12 [Compound 83, 4-amino-N-(1-((3-cyano-2-fluorophenyl)amino)-6-methylisoquinolin-5-yl)quinazoline-8-carboxamide] | – | 15.1 ± 1.62 |
| Cc1ccc2c(Nc3cc(Cl)ccc3F)nccc2c1NC(=O)c1cc(F)cc2c(N)ncnc12 [Compound 84, 4-amino-N-(1-((5-chloro-2-fluorophenyl)amino)-6-methylisoquinolin-5-yl)-6-fluoroquinazoline-8-carboxamide] | – | 23.8 ± 4.41 |
| Cc1ccc2c(Nc3ccc(F)cc3F)nccc2c1NC(=O)c1cc(F)cc2c(N)ncnc12 [Compound 85, 4-amino-N-(1-((2,4-difluorophenyl)amino)-6-methylisoquinolin-5-yl)-6-fluoroquinazoline-8-carboxamide] | 4.43 ± 0.32 | 9.02 ± 0.86 |
| Cc1ccc2c(Nc3cccc(Cl)c3F)nccc2c1NC(=O)c1cc(OCCO)cc2c(N)ncnc12 [Compound 86, 4-amino-N-(1-((3-chloro-2-fluorophenyl)amino)-6-methylisoquinolin-5-yl)-6-(2-hydroxyethoxy)quinazoline-8-carboxamide] | – | 11.9 ± 1.3 |
| COc1ccc(F)c(Nc2nccc3c(NC(=O)c4cccc5c(N)ncnc45)c(C)ccc23)c1 [Compound 87, 4-amino-N-(1-((2-fluoro-5-methoxyphenyl)amino)-6-methylisoquinolin-5-yl)quinazoline-8-carboxamide] | – | 4.64 ± 0.7 |
| Cc1ccc(Nc2nccc3c(NC(=O)c4cccc5c(N)ncnc45)c(C)ccc23)c(F)c1 [Compound 88, 4-amino-N-(1-((2-fluoro-4-methylphenyl)amino)-6-methylisoquinolin-5-yl)quinazoline-8-carboxamide] | – | 11.7 ± 0.99 |
| Cc1ccc2c(Nc3cc(Br)ccc3F)nccc2c1NC(=O)c1cccc2c(N)ncnc12 [Compound 91, 4-amino-N-(1-((5-bromo-2-fluorophenyl)amino)-6-methylisoquinolin-5-yl)quinazoline-8-carboxamide] | – | 20.9 ± 2.81 |
| Cc1ccc2c(Nc3c(F)c(F)cc(F)c3F)nccc2c1NC(=O)c1cccc2c(N)ncnc12 [Compound 95, 4-amino-N-(6-methyl-1-((2,3,5,6-tetrafluorophenyl)amino)isoquinolin-5-yl)quinazoline-8-carboxamide] | – | 13.9 ± 1.48 |
| Cc1ccc2c(Nc3cccc(OCCN4CCOCC4)c3F)nccc2c1NC(=O)c1cccc2c(N)ncnc12 [Compound 98, 4-amino-N-(1-((2-fluoro-3-(2-morpholinoethoxy)phenyl)amino)-6-methylisoquinolin-5-yl)quinazoline-8-carboxamide] | – | 21.9 ± 6.38 |
| Cc1ccc2c(Nc3cccc(Cl)c3F)nccc2c1NC(=O)c1cn(C)c2c(N)ncnc12 [Compound 101, 4-amino-N-(1-((3-chloro-2-fluorophenyl)amino)-6-methylisoquinolin-5-yl)-5-methyl-5H-pyrrolo[3,2-d]pyrimidine-7-carboxamide] | – | 5.58 ± 0.57 |
| Cc1ccc2c(Nc3cccc(Cl)c3F)ncnc2c1NC(=O)c1cccc2c(N)ncnc12 [Compound 102, 4-amino-N-(4-((3-chloro-2-fluorophenyl)amino)-7-methylquinazolin-8-yl)quinazoline-8-carboxamide] | – | 12.4 ± 3.05 |
